The values that follow come from patent US6776971B1, “Visible light pH change for activating polymers and other pH dependent reactants” (The United States of America as represented by the …, priority 1998, dated 2004).

Data set [1] can be described thus: Excited-state / phosphorescence lifetimes of candidate jump molecules. The settings on record: for τp (excited-state lifetime, p for phosphorescence): carbon acids, obs = observed; for Lifetimes (mS): triplet, prolonged excited state. In kind it is physicochemical. The source says: During the course of scientific research, the inventor constructed kinetic equations for the 3-level system of FIG. 1. Referring again to FIG. 1, an ideal “jump molecule” will be excited from ground state energy level (S0) to first excited singlet state energy level (S1), and return to the ground state via triplet state energy level (T1). The radiationless transition and radiative decay via phosphorescence will function as a “sink” for the molecules and because of their combined long lifetime, a prolonged molecule excited state will exist. The pH change produced by this excitation will last for the life of this excited state.
For example, the phenones are considered undesirable because the lifetimes of the protonated and non-protonated forms are very different, providing a rapid excited state deactivation channel. An example of this is benzophenone, having an unprotonated lifetime of 100 milliseconds and a protonated lifetime of 62 nanoseconds.
(§1) In Table 1, characteristics of the carbon acids are described. […] In this table, “obs” means “observed” and “c” means “calculated”.

Data set [2] in a line: Acidity constants (pK) in ground, first excited singlet and triplet states. To be noted: for pK (S0): ground state. It counts as physicochemical.
From the text: The term pK is a shorthand indicating the strength of an acid (pKa) and is defined as the −log10 K in which K is the characteristic equilibrium constant K, represented by:
where [H^+] is the hydrogen ion concentration and [B] is the concentration of the conjugate base. When the amount of one of these constituents is varied, the others will adjust to keep K constant.
as §1
By utilizing visible light, the protonated form BH^+ of anthracene is disassociated into its base (B) and hydrogen ion (H^+) constituents to prompt a pH change from […]. […] The calculation in Table 2 is based on a pK(S0) value for anthracene found in Mackor. E. L., Hofstra, A., and Van Der Waals, J. H., 1958, in an article entitled “The Basicity of Aromatic Hydrocarbons”, Trans. Faraday Soc., vol. 54, 66.

Data set [3] in a line: Excitation wavelength and light absorbance. To be noted: for Log (eps) / epsilon: 413.1 nm. It counts as physicochemical. The source says:
In Table 1, characteristics of the carbon acids are described. […] In this table, “obs” means “observed” and “c” means “calculated”. Of these, the PAC, anthracene, fits well with certain well established polymers. Referring to FIG. 4, the protonated form of this molecule is confirmed. […] The peak at 424 nm is the only peak within the visible region of the spectrum which decreases with time, and is the signature of anthracene's protonated form. It is this peak that is used to activate the anthracene polymeric actuator with visible light.

For data set [4] the following is noted: cited from earlier work.
The conditions of data set [5]: pK(S0), value from Mackor et al 1958; cited from earlier work.

Consider `N#CC1c2ccccc2-c2ccccc21` [9-cyanflourene], for which the “τp (excited-state lifetime, p for phosphorescence)” value in data set [1] is reported as “obs”. The “pK (S0)” value in data set [2] was 11.4. In addition, in data set [3], the “λ00 (excitation wavelength necessary to initiate a pH change)” value is 300 nm.
`c1ccc(C2c3ccccc3-c3ccccc32)cc1` [9-phenylflourene]: in data set [1], the “τp (excited-state lifetime, p for phosphorescence)” value is “obs”. The “pK (S0)” value in data set [2] was found to be 18.6. In addition, the “λ00 (excitation wavelength necessary to initiate a pH change)” value in data set [3] was 305 nm.
Consider `c1ccc2c(c1)Cc1ccccc1-2` [fluorene], for which the “τp (excited-state lifetime, p for phosphorescence)” value in data set [1] came out at 0.35 ms. The “pK (S0)” value in data set [2] is 23.04. In addition, the “λ00 (excitation wavelength necessary to initiate a pH change)” value in data set [3] is reported as 300 nm.
In the case of protonated anthracene [BH+], in data set [3], the “Log (eps)” value was found to be 4.38 and the epsilon is recorded as 23988. In data set [3] (zero-time spectrum, FIG. 4), the “absorbance peak within the visible region” value was found to be 424 nm.
`O=S(=O)(O)c1ccc2cc(O)ccc2c1` [2-naphthol-6-sulfonate]: the “excited-state pKa value” in data set [4] (S1 state, UV laser, from measured rate constants) is listed as 1.9. For the same compound, the “ground-state pKa value” in data set [4] was 9.1. Moreover, the “change in pKa” value in data set [4] (ground vs excited state) is given as 7 unit.
Turning to `c1ccc2cc3ccccc3cc2c1` [Anthracene, anthracene], the “Lifetimes nS” value in data set [1] (singlet excited state) was found to be 10.0 nS. Further, the “Lifetimes (mS)” value in data set [1] was “(10.0) mS”. Also, in data set [1] (listed as anthracene), the “Lifetimes (mS)” value was 10 mS. In addition, in data set [5], the “pK's Ground” value is given as 3.8. The “pK's Singlet” value in data set [2] is recorded as 13.6. Besides, the “pK's Triplet” value in data set [2] (pK(T1)) came to 10.3. Also, in data set [3], the “Log (eps)” value is on record as 0.04 and the epsilon worked out at 1.
As for `O=C(c1ccccc1)c1ccccc1` [benzophenone], in data set [1], the protonated lifetime is on record as 62 nanoseconds and the unprotonated lifetime is recorded as 100 milliseconds.
